Data on 7 compounds can be found in patent US5283236A, “Systemic delivery of polypeptides through the eye” (Orbon Corporation, priority 1992, dated 1994).

A short description of series [1]: Insulin absorption from eye drops with absorption enhancers (blood insulin). It is filed as in vivo, New Zealand white female rabbits. The following applies: eye drops: 1% insulin plus 1% absorption enhancer (Control: no enhancer).
In series [2] the test system is normal rabbits. Nature of the series: Blood glucose after insulin eye drops with absorption enhancers. The following applies: eye drops: 1% insulin plus 1% absorption enhancer (Control: no enhancer). It is filed as in vivo, New Zealand white female rabbits.
A short description of series [3]: Penetration of insulin into eyeballs with absorption enhancers. It is filed as in vivo, rabbits. The following applies: 1% insulin plus 1% enhancer (Control: 1% insulin only).
The conditions of series [4]: rabbit, in vivo. From the text: The concentrations of peptides in the blood were expressed in ng/ml.
The nature of series [5]: Enkephalin-equivalent remaining in eye tissues at the end of 12 hr experiment. It is filed as in vivo, New Zealand white female rabbits.
Series [6] is described as follows: Blood enkephalin-equivalent concentration after ocular or i.v. enkephalin. It is filed as in vivo, New Zealand white female rabbits. The following applies: enkephalin 50 ug i.v.
Series [7] relates to normal rabbits. Nature of the series: Blood glucose after ocular or i.v. glucagon in normal rabbits. It is filed as in vivo, New Zealand white female rabbits. Particulars: for blood glucose raised to: in 30 min.

Turning to `C[N+](C)(C)CCCCCCCCCC[N+](C)(C)C` [Decamethonium, decamethonium bromide], the “Insulin peak Concentration” value in series [1] worked out at 10.8 ± 1.8 ng/mL. In the series on normal rabbits [2], the “% Change in Blood Glucose Concentration” value stood at 8% and the “Blood Glucose Concentration Before” value was 90 ± 3 mg %.

`C[C@H](CCC(=O)NCC(=O)O)[C@H]1CC[C@H]2[C@@H]3[C@H](O)C[C@@H]4C[C@H](O)CC[C@]4(C)[C@H]3C[C@H](O)[C@]12C` [Glycocholate, sodium glycocholate]: the “Absolute amount of insulin in the eyeball” value in series [3] is recorded as 200 ng.

As to `CC(C)C[C@H](NC(=O)CNC(=O)[C@H](Cc1ccc(O)cc1)NC(=O)[C@H](CO)NC(=O)[C@H](Cc1c[nH]c2ccccc12)NC(=O)[C@H](Cc1cnc[nH]1)NC(=O)[C@@H]1CCC(=O)N1)C(=O)N[C@@H](CCCNC(=N)N)C(=O)N1CCC[C@H]1C(=O)NCC(N)=O` [LHRH, luteinizing hormone-releasing hormone], the “LHRH eye drop concentration sufficient to reach therapeutic effective blood concentration” value in series [4] is listed as not below 0.005%. Besides, the “Tx of blood LHRH” value in series [4] (iv) is recorded as “approximately 15 min”.

As to `NC(=O)[C@@H]1CCCN1C(=O)[C@H](Cc1cnc[nH]1)NC(=O)[C@@H]1CCC(=O)N1` [TRH, Thyrotrophin-releasing hormone], the “TRH eye drop concentration giving a therapeutic blood concentration” value in series [4] is not below 0.0025%. For the same compound, the “Tx of blood TRH” value in series [4] (iv) was “approximately 10 min”.

As for `CC(C)C[C@H](NC(=O)[C@H](Cc1ccccc1)NC(=O)CNC(=O)CNC(=O)[C@@H](N)Cc1ccc(O)cc1)C(=O)O` [enkephalin, Leucine-enkephalin (5-L-leucine)], the “Residual amount of enkephalin remaining in tissues, % of instilled, Total” value in series [5] (1% enkephalin) was determined as 0.1713%; in series [5] (5% enkephalin), 0.1136%; in series [5] ([…] enkephalin), 0.3019%. The “Residual amount of enkephalin remaining in tissues, Amount, Total” value in series [5] (1% enkephalin) came to 428.28 ng. The “Tx of decline of blood concentration” value in series [6] is reported as “less than 30 min”. Also, the lowest blood concentration in series [6] (in 5 hrs) was found to be 22 ng/mL.

Glucagon showed a blood glucose peak in the series on normal rabbits [7] (50 ug glucagon i.v., peaked at 30 min) of 235 mg %. Also, the “blood glucose raised to” value in the series with normal rabbits [7] (25 ul of 0.2% glucagon instilled) is on record as 204 mg %; with normal rabbits [7] (25 ul of 1% glucagon instilled), 248 mg %. The “blood glucose came down to” value with normal rabbits [7] (25 ul of 0.2% glucagon instilled, in 2 hrs) amounted to 116 mg %. Further, in the series with normal rabbits [7] (25 ul of 5% glucagon instilled, end of 6 hr), the “blood glucose declined to” value is on record as 160 mg %.

Regarding polyoxyethylene-9-lauryl ether [BL-9], in the series with normal rabbits [2], the “% Change in Blood Glucose Concentration” value came out at 42%, the “Blood Glucose Concentration After” value was 56 mg % and the “Blood Glucose Concentration Before” value is 97 mg %.
